For series [1], the system named is patients with type 2 diabetes. In words: Acute NEFA lowering with acipimox: 3 h OGTT and isoglycaemic IV glucose. It is filed as in vivo, human. The procedure:
Both tests were repeated after ACP ingestion (200 mg 2 h before and 1 h after starting glucose). C-peptide deconvolution was used to calculate IS rates; mathematical model to quantitate ß-cell function and IE. Main parameters: insulin secretion rate (ISR); glucose sensitivity (ßGS), i.e., the slope of the IS/glucose dose–response curve; glucose-induced potentiation (PGLU), a time-dependent modulation of the dose–response; incretin-induced potentiation (PINCR) calculated as the fold IS increment during OGTT compared to IV glucose.

Series [2] has as its system subjects with type 1 diabetes. In words: onset 1, 26-week phase 3 trial, post hoc analysis by dose adjustment method. Particulars: before treatment. In kind it is in vivo, human.
For another series, the system named is obese patients. The text has this:
Alpha-linolenic acid supplementation effects on endoplasmic reticulum stress in visceral adipose tissue from morbid obese patients. 2017. Tese (Doutorado)—Faculdade de Medicina de Ribeirão Preto, Universidade de São Paulo, Ribeirão Preto, 2017. Currently, obesity is considered a worldwide epidemic. It is associated with chronic inflammation and stress activation of the endoplasmic reticulum (ERE), related to the pathogenesis of various diseases such as type 2 diabetes mellitus, cardiovascular diseases, cancer, hypertension, among others. In this context, studies are needed to find alternatives that improve the inflammatory process. […] The objective of our study was to evaluate the effects of alpha-linolenic acid (ALA) supplementation on the metabolism and stress of the endoplasmic reticulum in obese patients. A prospective, randomized, placebo-controlled, double-blind study was conducted. In total, 52 patients were randomized to supplementation with 3 g/day of ALA or placebo, 27 individuals from the omega-3/ALA group and 25 from the control group. Lipid, glycidic and inflammatory profile were evaluated before and after supplementation. Visceral adipose tissue (TAV) was collected during bariatric surgery after supplementation. The fatty acid profile incorporated in the TAV was evaluated by gas chromatography. Genes were evaluated by real-time PCR.

In series [3] the test system is patient with schizophrenia. The experiment in a line: New-onset diabetes caused by atypical antipsychotic, case report. It is filed as in vivo, human. From the text: Case report: A patient, previously healthy, had been diagnosed with schizophrenia and started treatment with risperidone. Due to the lack of response, the medication was switched to olanzapine. After 2 years on the new treatment, however, they experienced polyuria, polydipsia and polyphagia, with a weight gain of approximately 12 kg in a period of 2 years. They were diagnosed with new-onset diabetes mellitus and hypertriglyceridemia and was referred to our center for evaluation. They were started on metformin 500 mg/day, NPH insulin 9 units before breakfast and 7 units bedtime, and bezafibrate 200 mg/day. […] LDL was not calculated due to the hypertriglyceridemia. Insulin was titrated to achieve glycemic control and autoantibodies (antiGAD, antiICA and anti-insulin) were requested, but they were negative. A letter was addressed to the psychiatry staff regarding olanzapine’s adverse events, which was exchanged to ziprasidone. […] Insulin dosing was reduced and further withdrawn 3 months after initiation of ziprasidone. Currently, 2 months thereafter, they are on good glycemic control with metformin and alogliptin.

The subject of another series is male Wistar rats. It is filed as in vivo, rat. The text has this:
Background: Glucocorticoids (GCs) are a group of drugs with immunosuppressive and antiinflammatory action, its mechanism of action is related to the suppressing the release of proinflammatory cytokines. In addition, GCs may interfere with carbohydrate metabolism, by antagonizing various peripheral actions of insulin, and from this action, trigger changes in the biochemical profile, mainly regarding the lipid representation. The present study aimed to evaluate the dose–response influence of prednisone in the biochemical profile of rats. […] The treatment was daily with a duration of 21 days, with fasting glycemic measures being evaluated in the first (zero) and last day (21). Then the rats were anesthetized and killed by decapitation, in order to collect the whole blood for serum biochemical analysis by spectrophotometry. All data were statistically evaluated with significance of 5%.

The test system of series [4] is NGT subjects and T2D patients. In words: Hyperglycaemic clamp with somatostatin, without and with insulin infusion: renal glucose excretion. In kind it is in vivo, human. The procedure:
Then, a constant insulin infusion (1 mU min^−1 kg^−1) was started and maintained for additional 3 h (INS period) while clamping glycaemia at CT levels with the use of an ad hoc algorithm. Urines were collected separately for the two study periods for the measurement of glucose and creatinine.

A further series deals with type 2 diabetic patient. In words: Case report: liraglutide added to insulin degludec and metformin. It is filed as in vivo, human. Particulars: last evaluation. The procedure: patient one, type 2 diabetic for 3 years, using Gliclazide 60 mg/day and Metformin 1500 mg/day. They reported asthenia and difficulty losing weight. […] To optimize patient glycemic control and weight loss, Liraglutide 1.2 mg/day was initiated. […] The insulin dose was reduced to 10 U and reassessed in 30 days for possible discontinuation of insulin therapy. GLP- 1 receptor agonists stimulate insulin secretion in a […] manner, inhibit glucagon secretion and hepatic glucose output, delay gastric emptying, induce satiety, reduce appetite, and cause weight loss. […] It is a therapeutic option with action well established in weight loss, metabolic and glycemic improvement in the DM2 patient. However, its action on HbA1C reduction was independent of weight loss, evidencing intensive glycemic control with HbA1C between 6.5 and 7.0% even with discrete or even absent weight loss.

For series [5], the system named is participants with type 2 diabetes and high cardiovascular risk. The experiment in a line: LEADER trial, renal outcomes. It is filed as in vivo, human. The text has this: Background: The effects of liraglutide, a long-acting glucagon-like peptide-1(GLP-1) analog, on renal outcomes in type 2 diabetes are unknown. We conducted a randomized, double-blind, placebo-controlled trial comparing liraglutide vs placebo, both on a background of standard of care, in participants with type 2 diabetes and high cardiovascular risk.
Renal events were key secondary outcomes. The primary renal outcome was a composite of new onset of persistent macroalbuminuria, persistent doubling of serum creatinine, end stage renal disease (ESRD), or death due to renal disease. Risk of renal outcomes was determined using intention-to-treat in time-to-event analyses; competing risk of death was taken into account. Change of eGFR and loss of eGFR by > − 30% was also analyzed.

In series [6] the test system is people with T2D and CKD stages 3-4. The experiment in a line: AWARD-7 phase 3 study, 26 weeks, both arms combined with insulin lispro. It is filed as in vivo, human.
Setting [7] is: subjects continuing carbohydrate counting (CC).
The mark [8] stands for this setting: subjects using a simple bolus algorithm (BA).
[9] abbreviates: arms DU 1.5 mg and insulin glargine.

The values that follow come from article PMC5907308, “21st Brazilian Diabetes Society Congress” (Diabetology & Metabolic Syndrome, 2018).

Turning to `Cc1cnc(C(=O)O)c[n+]1[O-]` [ACP, acipimox], the “decrease of NEFA OGTT-area-under-curve (AUC)” value in series [1] (ACP 200 mg 2 h before and 1 h after starting glucose, n = 13, mean ± SD) stood at 55 ± 14%. In addition, the “glucose sensitivity (ßGS)” value in [1] (after ACP, control 26 ± 9, p = ns) is 32 ± 11 pmol min^−1 m^−2 mM^−1. The “insulin secretion rate (ISR), isoglycaemic IV glucose” value in series [1] (after ACP, control 58 ± 19) is given as 53 ± 15 nmol m^−2. Further, the “insulin secretion rate (ISR), OGTT” value in [1] (after ACP, control 70 ± 23) was determined as 64 ± 20 nmol m^−2. Also, in series [1] (after ACP, control 291 ± 60), the “oral glucose sensitivity index, OGIS” value came to 326 ± 44 ml min^−1 m^−2. In addition, the “incretin-induced potentiation (PINCR)” value in series [1] (in vivo) was found to be 1.17 ± 0.14 fold.
Regarding insulin aspart [IAsp], the HbA1c at baseline in series [2] (setting [7]) and in [2] (setting [8]) was 7.6% in each case.
Regarding `CC/C=C\C/C=C\C/C=C\CCCCCCCC(=O)O` [ALA, alpha-linolenic acid], the “serum levels of IL-6, TNF-α and CRP” value in the series on obese patients (after supplementation) is recorded as “no change”. In addition, the “serum Leptin levels” value in the series on obese patients (after supplementation, P = 0.0154) is reported as “decrease”. Besides, in the series on obese patients (after supplementation, p = 0.0211), the “serum IL-4” value is on record as “increase”. Further, in the series on obese patients (after supplementation, p = 0.0410), the “serum IP-10” value was “decrease”. In the series on obese patients (gas chromatography), the “incorporation of ALA, EPA and DHA into visceral adipose tissue (TAV)” value was “Significant incorporation”. In the series with obese patients (real-time PCR), the “gene expression of XBP1, sXBP1, EIF2-α, GADD34 and CCT4 chaperone in TAV” value is recorded as “increase”; the “gene expression of leptin and ATF-6 in TAV” value was “decrease”.
In series [3] (After 2 years on olanzapine), `Cc1cc2c(s1)Nc1ccccc1N=C2N1CCN(C)CC1` [olanzapine] yielded an HDL of 65 mg/dL, a Total cholesterol of 570 mg/dL and a triglycerides of 3455 mg/dL. In addition, the weight gain result in series [3] (period of 2 years on olanzapine) is “approximately 12 kg”.
Regarding “fast-acting insulin aspart [faster aspart]”, the figures for the HbA1c at baseline in series [2] (setting [7]) and in [2] (setting [8]) were 7.6% and 7.5%, respectively.
Take `C[C@]12C=CC(=O)C=C1CC[C@@H]1[C@@H]2C(=O)C[C@@]2(C)[C@H]1CC[C@]2(O)C(=O)CO` [PRED, prednisone]: the “alanine aminotransferase (ALT)” value in the series on male Wistar rats (1.25 mg/kg, control 68.6 ± 24.8) came to 79.0 ± 25.1 U/L. The compound further displayed a triglycerides in the series on male Wistar rats (5.0 mg/kg, 21 days, CONT 144.1 ± 39.6) of 76.0 ± 36.2 mg/dL. Besides, in the series on male Wistar rats (5.0 mg/kg, CONT 22.8 ± 7.9), the VLDL was determined as 15.2 ± 7.2 mg/dL. The compound further gave an HDL in the series with male Wistar rats (5.0 mg/kg, CONT 53.0 ± 7.7) of 23.8 ± 4.2 mg/dL.
As for “INS: constant insulin infusion (1 mU min^−1 kg^−1)”, the “exogenous glucose infusion rate (GIR)” value is 157 ± 46 µmol kg MM^−1 min^−1 in [4] (INS period (insulin 1 mU min^−1 kg^−1, 3 h), NGT, CT period 36 ± 16) and 71 ± 47 µmol kg MM^−1 min^−1 in series [4] (INS period, T2D, CT period 26 ± 12). The “fractional glucose excretion (FEG)” value in series [4] (INS period, NGT, CT period 20 ± 5) worked out at 24 ± 3%; in [4] (INS period, T2D, CT period 17 ± 6) it was 17 ± 7%. For the same compound, the “urinary glucose excretion (UGE), median [IQR]” value in series [4] (INS period, NGT, CT period 690 [180]) is 770 [320] µmol min^−1; in series [4] (INS period, T2D, CT period 490[280]), 530[310] µmol min^−1.
In turn, `CCCCCCCCCCCCCCCC(=O)N[C@@H](CCC(=O)NCCCC[C@H](NC(=O)[C@H](C)NC(=O)[C@H](C)NC(=O)[C@H](CCC(N)=O)NC(=O)CNC(=O)[C@H](CCC(=O)O)NC(=O)[C@H](CC(C)C)NC(=O)[C@H](Cc1ccc(O)cc1)NC(=O)[C@H](CO)NC(=O)[C@H](CO)NC(=O)[C@@H](NC(=O)[C@H](CC(=O)O)NC(=O)[C@H](CO)NC(=O)[C@@H](NC(=O)[C@H](Cc1ccccc1)NC(=O)[C@@H](NC(=O)CNC(=O)[C@H](CCC(=O)O)NC(=O)[C@H](C)NC(=O)[C@@H](N)Cc1c[nH]cn1)[C@@H](C)O)[C@@H](C)O)C(C)C)C(=O)N[C@@H](CCC(=O)O)C(=O)N[C@@H](Cc1ccccc1)C(=O)N[C@H](C(=O)N[C@@H](C)C(=O)N[C@@H](Cc1c[nH]c2ccccc12)C(=O)N[C@@H](CC(C)C)C(=O)N[C@H](C(=O)N[C@@H](CCCNC(=N)N)C(=O)NCC(=O)N[C@@H](CCCNC(=N)N)C(=O)NCC(=O)O)C(C)C)[C@@H](C)CC)C(=O)O` [Liraglutide] came in with a HbA1c in the series with type 2 diabetic patient of 6.4%. In the series with type 2 diabetic patient ([…] of total weight), this compound had a total weight loss of 6 kg. In [5] (in vivo), the albuminuria vs placebo result is listed as “increased less” and the eGFR vs placebo entry was “decreased significantly less”. Further, the “primary renal outcome, participants” value in series [5] (median follow-up 3.84 years, placebo 337 of 4672) was 268 of 4668. Further, in series [5] (p = 0.003), the “primary renal outcome, HR vs placebo” value is 0.787 [0.670;0.924]. In addition, the “new onset of persistent macroalbuminuria, HR vs placebo” value in series [5] (p = 0.004) was 0.74 [0.61;0.91]. The “new onset of persistent macroalbuminuria, participants” value in [5] (placebo 215 of 4672) was 161 of 4668.
For the compound dulaglutide, the results for the Nausea in series [6] (arm DU 0.75 mg) and in series [6] (setting [9]) were 11.1% and 19.8%, respectively. Further, the diarrhea in series [6] (arm DU 0.75 mg) is recorded as 13.7%; in series [6] (setting [9]) it was 15.6%. In addition, the vomiting in [6] (arm DU 0.75 mg) turned out to be 5.8%; in series [6] (setting [9]), 12.0%. Also, the “hypoglycemia rate (≤ 70 mg/dL)” value in [6] (arm DU 0.75 mg once weekly) was determined as 7.8 events/participant/year; in [6] (arms DU 1.5 mg once weekly and titrated daily insulin glargine), 5.5 events/participant/year.
